Reference: patent US20240182406A1, “COMPOUNDS AS SOLUBLE EPOXIDE HYDROLASE INHIBITORS” (UNIVERSITAT DE BARCELONA, priority 2021, published 2024)

Key:
[1] = tested on: amyloid plaques; experiment: Thioflavin S staining of amyloid plaques in brain slices (5×FAD mice); assay type: in vivo, mouse; conditions: 5×FAD male mice 6-month-old, 5 mg/kg, 4 weeks, mean ± SEM
Text: 5×FAD (tg6799) is an early-onset mouse transgenic model which overexpress mutant human APP(695) with the Swedish (K670N, M671L), Florida (I716V) and London (V717I) Familial Alzheimer's Disease (FAD) mutations along with human PS1 harbouring two FAD mutations (M146L and L286V). The Tg6799 line used is the original hybrid B6SJL background, and this hybrid B6SJL strain is used as a control of healthy animals. The mouse Thy1 promoter regulates both transgenes to drive overexpression in the brain. 5×FAD mice recapitulate major features of AD amyloid pathology and is a useful model of intraneuronal Abeta-42 induced neurodegeneration with amyloid increase brain content and amyloid plaque formation and tau hyperphosphorylation (J Neurosci. 2006, 26(40), 10129-10140).
The test compound was dissolved in 1.8% hydroxypropyl-beta-cyclodextrin and concentration in water was calculated according to the weekly animal consumption to reach the precise daily dose. A freshly made weekly replaces the drinking solution. The amount of water that the animals drink was monitored weekly, by the cage, and drug concentration was adjusted every week to reach the precise dose. After 4 weeks of maintained treatment, mice were studied in the behavioural tests.
After NORT, animals were sacrificed and the whole hippocampus dissected or brain slices from control and treated mice obtained by using a cryostat. […]

[2] = tested on: C57BL/6 mice; experiment: Cerulein-induced acute pancreatitis murine model; assay type: in vivo, mouse
Text: Acute pancreatitis (AP) is a potentially life-threatening gastrointestinal disease, and its incidence has been increasing over the last few decades. The onset of the disease is thought to be triggered by intra-acinar cell activation of digestive enzymes that results in interstitial edema, inflammation and acinar cell death that often leads to a systemic inflammation response. […] The experimental procedure for the in vivo efficacy study followed already published protocols (Mol Pharmacol. 2015 August; 88(2):281-90)
In vivo efficacy study. Forty-one male C57BL/6 mice (eight week-old; approximately 24 g) were supplied by Envigo (Barcelona, Spain) (Ref. 16512). During the experimental procedure, animals were identified with permanent marker (tail code numbers). […] Animals were kept in an environmentally controlled room (ventilation, temperature 22±2° C. and humidity 35-65%) on a 12-h light/dark cycle. A period of 7 days of acclimatization underwent between the date of arrival and the start of the procedure. […] The maintenance diet was supplied by Harlan Interfauna Ibérica S. L. (2018 Harlan Teklad Global Diets). Diet will be provided to the animals ad libitum, but they were fasted overnight before first cerulein injection, and food was replaced after last cerulein injection. Tap water was supplied by CASSA (Servei d'Aigües de Sabadell) ad libitum. The animals were maintained in accordance with European Directive for the Protection of Vertebrate Animals Used for Experimental and other Scientific Purposes (86/609/EU). Decree 214/1997 of 30th July. Ministry of agriculture, livestock and fishing of the Autonomous Government of Catalonia, Spain. Royal Decree 53/2013 of 1st February (Spain). All the experimental procedures were approved by the Ethical Committee on human and animal experimentation (CEEAH) of Universitat Autònoma de Barcelona (UAB) (procedure number: 4107) and by the Animal Experimentation Commission of the Generalitat de Catalunya (Catalan Government) (DAAM: 10146). […]

[3] = tested on: human primary astrocytes; experiment: T/I/C-induced reactive astrocyte conversion, qPCR and Western blotting; assay type: cell-based
Description: To validate the inhibition efficacy of sEH, 10^6 astrocytes isolated from CD1 mouse brain (Sciencell #M1800) or primary human astrocyte (Sciencell #1800) were seeded onto 6 well culture plates in astrocyte medium (Sciencell #1831 or #1801).
Total RNAs were isolated from microglia or astrocyte using a Quick-RNA kit (Zymo Research, Inc., Irvine, CA, USA). The concentration of total RNAs was measured using a UV-Vis spectrophotometer (NanoDrop8000, Thermo Fisher Scientific Inc., Wilmington, DE, USA) and reverse-transcribed with a high-capacity cDNA reverse transcription kit (Applied Biosystems, Carlsbad, CA, USA). Gene expression was quantified by Fast SYBR green real-time PCR on a Quantstudio 5 system (Applied Biosystems). The primer sequences are listed below (Table 8). Data were analyzed according to the comparative Ct method. Glyceraldehyde 3-phosphate dehydrogenase (Gapdh) was used to normalize the amounts of cDNA within each sample.
Proteins were extracted from microglia or astrocyte by RIPA buffer (Thermo Fisher Scientific Inc.). Extracted proteins were separated by SDS/PAGE and subsequently transferred to nitrocellulose membranes (Bio-Rad, Hercules, CA, USA). […] Membranes visualized on Odyssey (LI-COR Biosciences, NE, USA).

O=C(NC12CC3CC(Cl)(CC(C1)c1ccccc13)C2)N[C@H]1CC[C@H](Oc2ccc(C(=O)O)cc2)CC1 [Example 2, 4-[((1r,4r)-4-(3-(9-chloro-5,6,8,9,10,11-hexahydro-7H-5,9:7,11-dimethanobenzo[9]annulen-7-yl)ureido)cyclohexyl)oxy]benzoic acid]
Number of Aβ plaques [1]: 292 ± 83
histologic analysis of pancreas (H&E), severity of cerulein-induced pancreatitis ([2]; both doses 0.1 and 0.3 mg/kg IP): ameliorated cerulein-induced effects
body weight change at end of study ([2]; cerulein 50 μg/kg IP x12, single dose 0.3 or 0.1 mg/kg IP, only 0.3 mg/kg significant (p<0.01 vs Cerulein)): increased body weight
histologic analysis of pancreas (H&E), pancreatic damage, edema, neutrophils infiltration ([2]; higher dose 0.3 mg/kg IP): more efficiently reversed the pancreatic damage, edema and neutrophils infiltration
induction of inflammatory mediators Nos and Cox2 mRNA ([3]; T/I/C 24 h, qPCR): prevented the induction
mRNA levels of reactive astrocyte markers Cxcl10 and C3 ([3]; T/I/C 24 h, qPCR): significantly reduced
protein levels of C3 and phosphor-p38 ([3]; T/I/C-induced reactive astrocyte, 30 μM (FIG. 5f)): decreased
